{
  "source": "paper PMC6010107",
  "about": "“Identification of new allosteric sites and modulators of AChE through computational and experimental tools” (Journal of Enzyme Inhibition and Medicinal Chemistry, 2018)",
  "key": {"AChE [1]": {"biological_target": "T1, AChE (Homo sapiens, UniProt P22303)", "T1 construct": "purchased Sigma Chemical Co., Madrid, Spain", "T1 sequence (P22303 32-614)": "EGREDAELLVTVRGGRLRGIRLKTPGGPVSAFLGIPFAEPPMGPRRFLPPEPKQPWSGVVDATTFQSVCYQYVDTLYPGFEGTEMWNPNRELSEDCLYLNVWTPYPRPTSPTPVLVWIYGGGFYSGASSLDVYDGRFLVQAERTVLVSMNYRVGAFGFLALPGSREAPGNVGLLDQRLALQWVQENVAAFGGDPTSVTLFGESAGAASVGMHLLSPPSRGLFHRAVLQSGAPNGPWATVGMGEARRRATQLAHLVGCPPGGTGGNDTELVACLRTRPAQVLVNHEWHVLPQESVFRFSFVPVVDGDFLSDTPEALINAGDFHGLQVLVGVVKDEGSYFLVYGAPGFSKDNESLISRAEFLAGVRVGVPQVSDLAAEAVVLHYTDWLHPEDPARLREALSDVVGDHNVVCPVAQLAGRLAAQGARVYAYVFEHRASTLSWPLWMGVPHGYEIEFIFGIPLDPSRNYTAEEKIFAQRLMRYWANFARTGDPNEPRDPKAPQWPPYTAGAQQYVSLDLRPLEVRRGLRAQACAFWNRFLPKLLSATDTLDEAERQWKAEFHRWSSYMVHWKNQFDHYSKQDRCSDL", "assay": "AChE inhibition in presence of the competitive inhibitor JTE-907 (cooperative activities)", "assay_type": "biochemical", "set-up": "key to ΔISC035 (combination minus SC035 alone): difference in % AChE inhibition (combination minus SC035 alone)", "conditions": "for Effect of combining with JTE-907 on AChE inhibition: sum of activities with JTE-907", "description": "(§1) The method was adapted from Ellman et al.[47] The assay solution consisted of 0.1 M phosphate buffer pH 8, […] 5,5′-dithiobis(2-nitrobenzoic acid) (DTNB, Ellman’s reagent), 0.05 unit/ml AChE (Sigma Chemical Co., Madrid, Spain, Cholinesterase, acetyl human recombinant), and […] acetylthiocholine iodide as the substrate of the enzymatic reaction. The compounds tested were added to the assay solution and the absorbance changes at 412 nm were recorded for 5 min with a UV/Vis Microplate and cuvette Spectrophotometer, Thermo Electron Type, Multiskan Spectrum. The reaction rates were compared, and the per cent inhibition due to the presence of test compounds was calculated. […] All the experiments were performed in triplicate.\nClearly, both compounds bind to AChE at an allosteric site. […] If our hypothesis is right, the binding of VP2.33 and SC035 to the allosteric site 3 in presence of JTE-907 should show a cooperative behaviour in terms of inhibition of the AChE."}, "AChE [2]": {"biological_target": "T1, AChE", "conditions": "cited from earlier work"}, "[3]": {"biological_target": "T2, AChE (Cholinesterase, acetyl human recombinant) (Homo sapiens, UniProt P22303)", "T2 construct": "purchased Sigma Chemical Co., Madrid, Spain", "T2 sequence (P22303 32-614)": "as above", "assay": "biochemical", "assay_type": "biochemical", "description": "as §1"}, "AChE [4]": {"biological_target": "T1, AChE", "assay": "Kinetic study of AChE inhibition (Lineweaver-Burk)", "assay_type": "biochemical", "conditions": "Lineweaver-Burk plots, four substrate and three inhibitor concentrations", "description": "To investigate the mechanism of action of the compounds on AChE, a kinetic analysis was performed. The experiments were carried out using combinations of four substrate concentrations, and three inhibitor concentrations. Double-reciprocal Lineweaver–Burk plotting of the data obtained, in which each point is mean of three different experiments, were analysed.\nMixed inhibitors cause intersects above or below the x-axis."}, "[5]": {"conditions": "Table S1 first grid, JTE907 2.5 μM + SC035 25 μM"}, "[6]": {"conditions": "Table S1 first grid, JTE907 5 μM + SC035 50 μM"}, "[7]": {"conditions": "Table S1 first grid, JTE907 20 μM + SC035 25 μM"}, "[8]": {"conditions": "Table S1 first grid, JTE907 20 μM + SC035 50 μM"}, "[9]": {"conditions": "Table S1 second grid, SC035 25 μM + JTE907 5 μM"}, "[10]": {"conditions": "Table S1 second grid, SC035 50 μM + JTE907 2.5 μM"}, "[11]": {"conditions": "Table S1 second grid, SC035 50 μM + JTE907 5 μM"}, "[12]": {"conditions": "Table S1 second grid, SC035 70 μM + JTE907 2.5 μM"}, "[13]": {"conditions": "Table S1 second grid, SC035 70 μM + JTE907 5 μM"}, "[14]": {"conditions": "Table 4, compounds selected to bind site 3, read-out: IC50"}, "[15]": {"conditions": "compound alone, read-out: Individual inhibition of AChE"}},
  "note": "Read-outs that look alike come from different tables or passages of the source.",
  "data": [
    {"smiles": "CCCCCOc1c(OC)ccc2cc(C(=O)NCc3ccc4c(c3)OCO4)c(=O)[nH]c12", "note": "[JTE907, reference compound]", "values": [
      {"measurement": "ΔIJTE907 (combination minus JTE907 alone)", "setting": "AChE [1]; JTE907 5 μM + VP2.33 25 μM", "result": "ΔIJTE907 = 19.86"},
      {"measurement": "ΔIJTE907 (combination minus JTE907 alone)", "setting": "AChE [1]; JTE907 5 μM + VP2.33 50 μM", "result": "ΔIJTE907 = 44.53"},
      {"measurement": "ΔIJTE907 (combination minus JTE907 alone)", "setting": "AChE [1]; JTE907 10 μM + VP2.33 25 μM", "result": "ΔIJTE907 = 11.79"},
      {"measurement": "ΔIJTE907 (combination minus JTE907 alone)", "setting": "AChE [1]; JTE907 20 μM + VP2.33 25 μM", "result": "ΔIJTE907 = 15.66"},
      {"measurement": "ΔIJTE907 (combination minus JTE907 alone)", "setting": "AChE [1]; JTE907 20 μM + VP2.33 50 μM", "result": "ΔIJTE907 = 24.96"},
      {"measurement": "ΔIJTE907 (combination minus JTE907 alone)", "setting": "AChE [1]; [5]", "result": "21,5"},
      {"measurement": "ΔIJTE907 (combination minus JTE907 alone)", "setting": "AChE [1]; Table S1 first grid, JTE907 2.5 μM + SC035 50 μM", "result": 33},
      {"measurement": "ΔIJTE907 (combination minus JTE907 alone)", "setting": "AChE [1]; [6]", "result": "19,52"},
      {"measurement": "ΔIJTE907 (combination minus JTE907 alone)", "setting": "AChE [1]; [7]", "result": "-3,46"},
      {"measurement": "ΔIJTE907 (combination minus JTE907 alone)", "setting": "AChE [1]; [8]", "result": "-3,34"},
      {"measurement": "ΔIJTE907 (combination minus JTE907 alone)", "setting": "AChE [1]; Table S1 second grid, SC035 25 μM + JTE907 2.5 μM", "result": "18,41"},
      {"measurement": "ΔIJTE907 (combination minus JTE907 alone)", "setting": "AChE [1]; [9]", "result": "13,78"},
      {"measurement": "ΔIJTE907 (combination minus JTE907 alone)", "setting": "AChE [1]; [10]", "result": "33,91"},
      {"measurement": "ΔIJTE907 (combination minus JTE907 alone)", "setting": "AChE [1]; [11]", "result": "17,2"},
      {"measurement": "ΔIJTE907 (combination minus JTE907 alone)", "setting": "AChE [1]; [12]", "result": "48,02"},
      {"measurement": "ΔIJTE907 (combination minus JTE907 alone)", "setting": "AChE [1]; [13]", "result": "20,33"},
      {"measurement": "Individual inhibition of AChE", "setting": "AChE [1]; compound alone, 2.5 μM", "result": "14,09±2,85%"},
      {"measurement": "Individual inhibition of AChE", "setting": "AChE [1]; compound alone, 5 μM", "result": "34,22±1,13% and JTE907 5μM (30.34 ± 2.85%)"},
      {"measurement": "Individual inhibition of AChE", "setting": "AChE [1]; compound alone, 10 μM", "result": "JTE907 10 μM (56.78 ± 1.35%)"},
      {"measurement": "Individual inhibition of AChE", "setting": "AChE [1]; compound alone, 20 μM", "result": "65,78±2,37% and JTE907 20 μM (65.10 ± 2.37%)"},
      {"measurement": "Mechanism of AChE inhibition", "setting": "AChE [2]", "result": "pure competitive inhibitor"}
    ]},
    {"smiles": "O=C(/C=C/c1ccc(O)c(O)c1)O[C@H](Cc1ccc(O)c(O)c1)C(=O)O", "note": "[Rosmarinic acid, reference compound]", "values": [
      {"measurement": "IC50", "setting": "[3]; IC50 (μM), Table 3, compounds selected to bind site 2", "result": "> 10", "unit": "µM"},
      {"measurement": "inhibition at 10 µM", "setting": "[3]; read-out: % of inhibition at 10 μM", "result": 26, "unit": "%"}
    ]},
    {"smiles": "O=C(CN1CCCC1)NN1c2ccccc2Sc2ccc(Cl)cc21", "note": "[SC035]", "values": [
      {"measurement": "IC50", "setting": "[3]; [14]", "result": "42.1 ± 4.3", "unit": "µM"},
      {"measurement": "ΔISC035 (combination minus SC035 alone)", "setting": "AChE [1]; [5]", "result": "-6,74"},
      {"measurement": "ΔISC035 (combination minus SC035 alone)", "setting": "AChE [1]; Table S1 first grid, JTE907 5 μM + SC035 25 μM", "result": "2,26"},
      {"measurement": "ΔISC035 (combination minus SC035 alone)", "setting": "AChE [1]; [6]", "result": "-4,98"},
      {"measurement": "ΔISC035 (combination minus SC035 alone)", "setting": "AChE [1]; [7]", "result": "19,99"},
      {"measurement": "ΔISC035 (combination minus SC035 alone)", "setting": "AChE [1]; [8]", "result": "3,72"},
      {"measurement": "ΔISC035 (combination minus SC035 alone)", "setting": "AChE [1]; [9]", "result": "5,67"},
      {"measurement": "ΔISC035 (combination minus SC035 alone)", "setting": "AChE [1]; [10]", "result": "-10,72"},
      {"measurement": "ΔISC035 (combination minus SC035 alone)", "setting": "AChE [1]; [11]", "result": "-7,3"},
      {"measurement": "ΔISC035 (combination minus SC035 alone)", "setting": "AChE [1]; [12]", "result": "-13,21"},
      {"measurement": "ΔISC035 (combination minus SC035 alone)", "setting": "AChE [1]; [13]", "result": "-20,77"},
      {"measurement": "inhibition at 25 µM", "setting": "AChE [1]; [15]", "result": 42.3, "unit": "%"},
      {"measurement": "inhibition at 50 µM", "setting": "AChE [1]; [15]", "result": 58.7, "unit": "%"},
      {"measurement": "inhibition at 70 µM", "setting": "AChE [1]; compound alone, 70 μM, read-out: Individual inhibition of AChE", "result": 75.3, "unit": "%"},
      {"measurement": "Effect of combining with JTE-907 on AChE inhibition", "setting": "AChE [1]", "result": "no addition of activities"},
      {"measurement": "Mechanism of inhibition versus substrate ACh", "setting": "AChE [4]", "result": "non-competitive inhibition"}
    ]},
    {"smiles": "NC1=NC(=O)C2N=C(c3ccccc3)C(c3ccccc3)=NC2=N1", "note": "(stereo not drawn) [SC251]", "values": [
      {"measurement": "IC50", "setting": "[3]; Table 3, compounds selected to bind site 2, read-out: IC50", "result": "2.76 ± 0.25", "unit": "µM"},
      {"measurement": "Mechanism of inhibition versus substrate ACh", "setting": "AChE [4]", "result": "non-competitive-mixed"}
    ]},
    {"smiles": "OCCNc1nc(-c2cccc3ccccc23)[n+](-c2ccccc2)s1", "note": "[VP2.33]", "values": [
      {"measurement": "IC50", "setting": "[3]; [14]", "result": "49.6 ± 1.5", "unit": "µM"},
      {"measurement": "ΔIVP2.33 (combination minus VP2.33 alone)", "setting": "AChE [1]; JTE907 5 μM + VP2.33 50 μM", "result": "ΔIVP2.33 = 17.16"},
      {"measurement": "ΔIVP2.33 (combination minus VP2.33 alone)", "setting": "AChE [1]; JTE907 10 μM + VP2.33 25 μM", "result": "ΔIVP2.33 = 41.29"},
      {"measurement": "ΔIVP2.33 (combination minus VP2.33 alone)", "setting": "AChE [1]; JTE907 10 μM + VP2.33 50 μM", "result": "ΔIVP2.33 = 27.71"},
      {"measurement": "ΔIVP2.33 (combination minus VP2.33 alone)", "setting": "AChE [1]; JTE907 20 μM + VP2.33 25 μM", "result": "ΔIVP2.33 = 53.48"},
      {"measurement": "ΔIVP2.33 (combination minus VP2.33 alone)", "setting": "AChE [1]; JTE907 20 μM + VP2.33 50 μM", "result": "ΔIVP2.33 = 32.35"},
      {"measurement": "inhibition at 25 µM", "setting": "AChE [1]; [15]", "result": 27.3, "unit": "%"},
      {"measurement": "inhibition at 50 µM", "setting": "AChE [1]; [15]", "result": 57.7, "unit": "%"},
      {"measurement": "Effect of combining with JTE-907 on AChE inhibition", "setting": "AChE [1]", "result": "an effect of cooperative activities"},
      {"measurement": "Mechanism of inhibition versus substrate ACh", "setting": "AChE [4]", "result": "non-competitive inhibition"}
    ]}
  ]
}
